From PubChem BioAssay AID220 (DTP/NCI, 2004) come the findings set out here.

For the assay, the system named is CD8F1 mice, subcutaneous mammary adenocarcinoma, T/C%. Put plainly: NCI In Vivo Anticancer Drug Screen. Data for tumor model Mammary Adenocarcinoma CD8F1 (subcutaneous) in CD8F1. The following applies: higher = larger tumour. The procedure, abridged:
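Mice carrying transplanted tumors received test compound, and survival or tumor size was recorded. Each value is the treated-group measurement divided by the corresponding measurement in vehicle-dosed controls.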

Records with an inconclusive call do not appear.

Take `COc1c(CNC(=O)CCl)cc2[nH]c(C)cc2c1CNC(=O)CCl`: the T/C is 92 % of control (endpoint: median tumor weight (est.), dose: 6.25 mg/kg/injection, schedule: Q07DX005 (ip), vehicle: Klucel (hydroxypropylcellulose) (HPC)); 67 % of control (endpoint: median tumor weight (est.), dose: 12.5 mg/kg/injection, schedule: Q07DX005 (ip), vehicle: Klucel (hydroxypropylcellulose) (HPC)); 97 % of control (endpoint: median tumor weight (est.), dose: 50.0 mg/kg/injection, schedule: Q07DX005 (ip), vehicle: Klucel (hydroxypropylcellulose) (HPC)); 55 % of control (endpoint: median tumor weight (est.), dose: 100.0 mg/kg/injection, schedule: Q07DX005 (ip), vehicle: Klucel (hydroxypropylcellulose) (HPC)); 57 % of control (endpoint: median tumor weight (est.), dose: 200.0 mg/kg/injection, schedule: Q07DX005 (ip), vehicle: Klucel (hydroxypropylcellulose) (HPC)); 106 % of control (endpoint: median tumor weight change, dose: 125.0 mg/kg/injection, schedule: Q01DX001 (ip), vehicle: Klucel (hydroxypropylcellulose) (HPC)). Besides, the T/C (endpoint: median tumor weight change, dose: 250.0 mg/kg/injection, schedule: Q01DX001 (ip), vehicle: Klucel (hydroxypropylcellulose) (HPC)) was 108 % of control.
Regarding `CC/C(=C(\c1ccccc1)c1ccc(OCCN(C)C)cc1)c1ccccc1`, the T/C is 102 % of control (endpoint: mean tumor weight (est.), dose: 150.0 mg/kg/injection, schedule: Q07DX002 (ip), vehicle: saline); 100 % of control (endpoint: mean tumor weight (est.), dose: 200.0 mg/kg/injection, schedule: Q07DX002 (ip), vehicle: saline); 45 % of control (endpoint: mean tumor weight, dose: 100.0 mg/kg/injection, schedule: Q07DX007 (ip), vehicle: saline); 52 % of control (endpoint: mean tumor weight, dose: 150.0 mg/kg/injection, schedule: Q07DX008 (ip), vehicle: saline); 15 % of control (endpoint: mean tumor weight, dose: 200.0 mg/kg/injection, schedule: Q07DX007 (ip), vehicle: saline); 31 % of control (endpoint: mean tumor weight, dose: 200.0 mg/kg/injection, schedule: Q07DX008 (ip), vehicle: saline). Moreover, the T/C runs as follows: (endpoint: median tumor weight change, dose: 25.0 mg/kg/injection, schedule: Q01DX001 (ip), vehicle: suspension in saline) 105 % of control; (endpoint: median tumor weight change, dose: 50.0 mg/kg/injection, schedule: Q01DX001 (ip), vehicle: suspension in saline) 111 % of control; (endpoint: median tumor weight change, dose: 100.0 mg/kg/injection, schedule: Q01DX001 (ip), vehicle: suspension in saline) 150 % of control; (endpoint: median tumor weight change, dose: 200.0 mg/kg/injection, schedule: Q01DX001 (ip), vehicle: suspension in saline) 158 % of control.
As to `O=C1C=C[C@H](O)[C@@]2(CO)O[C@@H]12`, the T/C reads like this: (endpoint: median tumor weight change, dose: 3.12 mg/kg/injection, schedule: Q01DX001 (ip), vehicle: saline with Tween-80) 65 % of control; (endpoint: median tumor weight change, dose: 6.25 mg/kg/injection, schedule: Q01DX001 (ip), vehicle: saline with Tween-80) 61 % of control; (endpoint: median tumor weight change, dose: 12.5 mg/kg/injection, schedule: Q01DX001 (ip), vehicle: saline with Tween-80) 90 % of control.
Turning to `C/C=C/c1cc2c(c(=O)o1)C(=O)[C@@H](O)[C@H](C)O2`, the T/C by setting is: (endpoint: median tumor weight (est.), dose: 12.5 mg/kg/injection, schedule: Q07DX005 (ip), vehicle: saline with Tween-80) 89 % of control; (endpoint: median tumor weight (est.), dose: 25.0 mg/kg/injection, schedule: Q07DX005 (ip), vehicle: saline with Tween-80) 87 % of control; (endpoint: median tumor weight (est.), dose: 50.0 mg/kg/injection, schedule: Q07DX005 (ip), vehicle: saline with Tween-80) 102 % of control; (endpoint: median tumor weight (est.), dose: 100.0 mg/kg/injection, schedule: Q07DX005 (ip), vehicle: saline with Tween-80) 77 % of control; (endpoint: median tumor weight (est.), dose: 200.0 mg/kg/injection, schedule: Q07DX005 (ip), vehicle: saline with Tween-80) 82 % of control.
With `Cn1cnc([N+](=O)[O-])c1[Se]c1nc(N)nc2nc[nH]c12`, the T/C is 109 % of control (endpoint: median tumor weight (est.), dose: 6.25 mg/kg/injection, schedule: Q07DX005 (ip), vehicle: water); 104 % of control (endpoint: median tumor weight (est.), dose: 12.5 mg/kg/injection, schedule: Q07DX005 (ip), vehicle: water); 173 % of control (endpoint: median tumor weight (est.), dose: 25.0 mg/kg/injection, schedule: Q07DX005 (ip), vehicle: water); 215 % of control (endpoint: median tumor weight (est.), dose: 50.0 mg/kg/injection, schedule: Q07DX005 (ip), vehicle: water); 107 % of control (endpoint: median tumor weight (est.), dose: 200.0 mg/kg/injection, schedule: Q07DX005 (ip), vehicle: water).
With `O=c1[nH]cc(F)c(=O)[nH]1`, the T/C was 28 % of control (endpoint: mean tumor weight (est.), dose: 50.0 mg/kg/injection, schedule: Q07DX004 (ip), vehicle: saline); 25 % of control (endpoint: mean tumor weight (est.), dose: 50.0 mg/kg/injection, schedule: Q07DX004 (iv), vehicle: saline); 15 % of control (endpoint: mean tumor weight (est.), dose: 100.0 mg/kg/injection, schedule: Q07DX003 (ip), vehicle: saline); 2 % of control (endpoint: mean tumor weight (est.), dose: 100.0 mg/kg/injection, schedule: Q07DX004 (ip), vehicle: saline); 3 % of control (endpoint: mean tumor weight (est.), dose: 100.0 mg/kg/injection, schedule: Q07DX004 (iv), vehicle: saline); 14 % of control (endpoint: mean tumor weight (est.), dose: 115.0 mg/kg/injection, schedule: Q07DX003 (ip), vehicle: saline). Further, the T/C reads like this: (endpoint: mean tumor weight (est.), dose: 130.0 mg/kg/injection, schedule: Q07DX003 (ip), vehicle: saline) 5 % of control; (endpoint: mean tumor weight, dose: 5.0 mg/kg/injection, schedule: Q01DX009 (ip), vehicle: saline) 159 % of control; (endpoint: mean tumor weight, dose: 10.0 mg/kg/injection, schedule: Q01DX009 (ip), vehicle: saline) 199 % of control; (endpoint: mean tumor weight, dose: 20.0 mg/kg/injection, schedule: Q01DX009 (ip), vehicle: saline) 4 % of control; (endpoint: mean tumor weight, dose: 25.0 mg/kg/injection, schedule: Q07DX006 (ip), vehicle: saline) 105 % of control; (endpoint: mean tumor weight, dose: 25.0 mg/kg/injection, schedule: Q07DX007 (ip), vehicle: saline) 92 % of control. Moreover, the T/C is 10 % of control (endpoint: mean tumor weight, dose: 50.0 mg/kg/injection, schedule: Q07DX006 (ip), vehicle: saline); 11 % of control (endpoint: mean tumor weight, dose: 50.0 mg/kg/injection, schedule: Q07DX007 (ip), vehicle: saline); 176 % of control (endpoint: median tumor weight (est.), dose: 5.0 mg/kg/injection, schedule: Q01DX005 (ip), vehicle: saline); 20 % of control (endpoint: median tumor weight (est.), dose: 10.0 mg/kg/injection, schedule: Q01DX005 (ip), vehicle: saline); 17 % of control (endpoint: median tumor weight (est.), dose: 15.0 mg/kg/injection, schedule: Q04DX005 (ip), vehicle: saline); 4 % of control (endpoint: median tumor weight (est.), dose: 15.0 mg/kg/injection, schedule: Q07DX005 (ip), vehicle: saline). Also, the T/C is 49 % of control (endpoint: median tumor weight (est.), dose: 20.0 mg/kg/injection, schedule: Q01DX005 (ip), vehicle: saline); 39 % of control (endpoint: median tumor weight (est.), dose: 25.0 mg/kg/injection, schedule: Q01DX005 (ip), vehicle: saline); 30 % of control (endpoint: median tumor weight (est.), dose: 25.0 mg/kg/injection, schedule: Q04DX005 (ip), vehicle: saline); 19 % of control (endpoint: median tumor weight (est.), dose: 25.0 mg/kg/injection, schedule: Q07DX005 (ip), vehicle: saline); 86 % of control (endpoint: median tumor weight (est.), dose: 27.0 mg/kg/injection, schedule: Q07DX005 (ip), vehicle: saline); 24 % of control (endpoint: median tumor weight (est.), dose: 30.0 mg/kg/injection, schedule: Q04DX005 (ip), vehicle: saline). Besides, the T/C is 5 % of control (endpoint: median tumor weight (est.), dose: 30.0 mg/kg/injection, schedule: Q07DX005 (ip), vehicle: saline); 14 % of control (endpoint: median tumor weight (est.), dose: 37.5 mg/kg/injection, schedule: Q01DX005 (ip), vehicle: saline); 24 % of control (endpoint: median tumor weight (est.), dose: 37.5 mg/kg/injection, schedule: Q04DX005 (ip), vehicle: saline); 27 % of control (endpoint: median tumor weight (est.), dose: 37.5 mg/kg/injection, schedule: Q07DX005 (ip), vehicle: saline); 48 % of control (endpoint: median tumor weight (est.), dose: 40.0 mg/kg/injection, schedule: Q07DX005 (ip), vehicle: saline); 9 % of control (endpoint: median tumor weight (est.), dose: 50.0 mg/kg/injection, schedule: Q04DX005 (ip), vehicle: saline). In addition, the T/C by setting is: (endpoint: median tumor weight (est.), dose: 50.0 mg/kg/injection, schedule: Q07DX005 (ip), vehicle: saline) 2 % of control; (endpoint: median tumor weight (est.), dose: 60.0 mg/kg/injection, schedule: Q07DX005 (ip), vehicle: saline) 18 % of control; (endpoint: median tumor weight (est.), dose: 89.0 mg/kg/injection, schedule: Q01DX001 (ip), vehicle: saline) 30 % of control; (endpoint: median tumor weight (est.), dose: 90.0 mg/kg/injection, schedule: Q07DX005 (ip), vehicle: saline) 9 % of control; (endpoint: median tumor weight (est.), dose: 133.0 mg/kg/injection, schedule: Q01DX001 (ip), vehicle: saline) 22 % of control; (endpoint: median tumor weight (est.), dose: 200.0 mg/kg/injection, schedule: Q01DX001 (ip), vehicle: saline) 21 % of control. Moreover, the T/C runs as follows: (endpoint: median tumor weight (est.), dose: 270.0 mg/kg/injection, schedule: Q01DX001 (ip), vehicle: saline) 17 % of control; (endpoint: median tumor weight change, dose: 25.0 mg/kg/injection, schedule: Q01DX001 (ip), vehicle: saline) 103 % of control; (endpoint: median tumor weight change, dose: 50.0 mg/kg/injection, schedule: Q01DX001 (ip), vehicle: saline) 61 % of control; (endpoint: median tumor weight change, dose: 100.0 mg/kg/injection, schedule: Q01DX001 (ip), vehicle: saline) 33 % of control.
For the molecule `c1ccc2c(c1)-c1ccccc1C1NC21` (stereo unspecified), where the note is “endpoint: median tumor weight change, dose: 62.0 mg/kg/injection, schedule: Q01DX001 (ip), vehicle: saline with Tween-80”, the T/C is 58 % of control.
